One assay has as its system hyperlipidaemic rats. The assay can be described thus: Triton WR1339 (tyloxapol) induced hyperlipidaemia in rats. The class given is in vivo, Wistar rats. To be noted: tyloxapol 200 mg/kg i.p.; for inhibition in vivo at 150 µmol/kg / inhibition in vivo at 500 µmol/kg / inhibition in vivo at 300 µmol/kg: Rattus norvegicus, ip, 24 h; for inhibition in vivo at 500 µmol/kg: 500 μmol/kg i.p.; for inhibition in vivo at 300 µmol/kg: 300 μmol/kg i.p. From the text:
The pleiotropic effects of statins, used as hypolipidaemic drugs, include antioxidant ability and direct increase of eNOS activity, in addition to inhibition of 3-hydroxy-3-methylglutaryl coenzyme A (HMG-CoA) reductase. […] The systemic administration of Triton-WR1339 (tyloxapol) to rats induces a biphasic elevation of plasma cholesterol, atherogenic VLDL cholesterol and LDL cholesterol, as well as triglyceride levels. […] Agents shown to be active in phase I are considered to interfere with cholesterol biosynthesis.
κ-Carrageenan and lipoxygenase type I-B from soybean were purchased from Sigma (St. Louis, MO, U.S.A.). For the in vivo experiments, Wistar rats (180–220 g, 3–4 months old) were kept in the Centre of the School of Veterinary Medicine (EL54 BIO42), Aristotelian University of Thessaloniki, which is registered by the official state veterinary authorities (presidential degree 56/2013, in harmonization with the European Directive 2010/63/EEC). The experimental protocols were approved by the Animal Ethics Committee of the Prefecture of Central Macedonia (no. 270079/2500).
Hyperlipidaemia was induced by the i.p. administration of Triton WR 1339 (200 mg/kg) to rats. […] Blood was taken from the aorta after 24 h, for the determination of plasma total cholesterol, LDL-cholesterol and triglyceride concentrations, using commercial kits.

The subject of assay [1] is carrageenan-induced rat paw oedema. Put plainly: Carrageenan-induced rat paw oedema. The note with it: 0.15 mmol/kg i.p., oedema after 3.5 h, vs carrageenan-only controls; for inhibition in vivo at 150 µmol/kg: Rattus norvegicus, ip, read-out: % Oedema Reduction. The class given is in vivo, Wistar rats. Here is the method: The carrageenan-induced paw oedema is a well-known and widely used model of acute inflammation. The response to carrageenan inflammation may be divided into three phases. In the first phase (after 1.5 h), histamine and serotonin are released, the second phase (1.5–2.5 h after carrageenan administration) is mediated by kinins, whereas, in the third phase, more than two hours post administration, neutrophil infiltration, prostaglandin production and release of pro-inflammatory cytokines are involved. In this work, oedema was measured 3.5 h post injection.
κ-Carrageenan and lipoxygenase type I-B from soybean were purchased from Sigma (St. Louis, MO, U.S.A.).
The tested compounds (in water with a few drops of Tween 80) were given i.p. (0.15 mmol/kg) to rats, just after the i.d. injection of 0.1 mL of an aqueous carrageenan solution (1% w/v) in the hind paw of rats. The produced oedema, after 3.5 h, was estimated as paw weight increase.

Assay [2] is described as follows: In vitro nitrogen monoxide release (Griess reagent). On the procedure: Due to their poor aqueous solubility, compounds 1, 3-7 and 9 were dissolved in 7/3 (v/v) mixture of DMSO/water at various concentrations and incubated overnight at room temperature in the presence of cadmium. S-nitroso-N-acetylpenicillamine (SNAP) was dissolved either in DMSO/water 7/3 or in water and treated as above.
Aliquots were taken from each sample and added to an equal volume of N-naphthylaminoethylamine (0.2%) and sulfanilamide (2%) solution in 3 N hydrochloric acid (Griess reagent). Appropriate sodium nitrite solutions in the same DMSO/water mixture were used for the construction of the standard curve and values were identical to those obtained with aqueous solutions. Nitric oxide release was estimated spectrophotometrically (540 nm).

The target in another assay is T1, soybean lipoxygenase 1-B (Glycine max, UniProt P08170).
T1 construct: purchased Sigma (St. Louis, MO, U.S.A.)
T1 sequence (P08170 1-839): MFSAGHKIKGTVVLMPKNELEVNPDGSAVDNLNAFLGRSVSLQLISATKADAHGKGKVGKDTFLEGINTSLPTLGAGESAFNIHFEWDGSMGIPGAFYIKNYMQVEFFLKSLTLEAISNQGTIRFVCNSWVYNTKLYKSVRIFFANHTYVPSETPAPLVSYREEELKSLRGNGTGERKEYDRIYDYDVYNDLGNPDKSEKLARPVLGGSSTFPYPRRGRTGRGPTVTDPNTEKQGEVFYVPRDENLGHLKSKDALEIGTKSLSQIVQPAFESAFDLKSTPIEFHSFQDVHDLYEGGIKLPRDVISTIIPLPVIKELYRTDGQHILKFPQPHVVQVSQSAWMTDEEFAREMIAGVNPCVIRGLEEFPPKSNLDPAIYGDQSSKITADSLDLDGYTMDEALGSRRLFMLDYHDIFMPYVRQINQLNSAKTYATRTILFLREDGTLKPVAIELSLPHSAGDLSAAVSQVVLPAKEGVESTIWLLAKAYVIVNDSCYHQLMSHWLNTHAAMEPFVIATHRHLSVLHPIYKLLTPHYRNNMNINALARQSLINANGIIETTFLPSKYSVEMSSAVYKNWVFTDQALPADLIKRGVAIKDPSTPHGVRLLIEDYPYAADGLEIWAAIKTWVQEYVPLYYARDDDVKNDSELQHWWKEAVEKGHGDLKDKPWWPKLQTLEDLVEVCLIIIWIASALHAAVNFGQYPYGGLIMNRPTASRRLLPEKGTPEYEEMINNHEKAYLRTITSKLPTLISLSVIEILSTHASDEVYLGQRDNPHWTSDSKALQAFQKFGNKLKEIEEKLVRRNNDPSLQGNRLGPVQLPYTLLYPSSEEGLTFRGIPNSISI
The assay can be described thus: In vitro soybean lipoxygenase inhibition, linoleate as substrate. The class given is biochemical. To be noted: sodium linoleate 100 μM; after 7 min of incubation; pH 9.0, 28 °C. On the procedure: The reaction mixture contained the examined compounds (in absolute ethanol, 1–300 μM), soybean lipoxygenase (in saline, 250 u/mL) and sodium linoleate (100 μM), in Tris–HCl buffer, pH 9.0. The reaction was monitored for 7 min at 28 °C, recording the absorbance at 234 nm. […]

Where [3] appears, read: 150 μmol/kg i.p., plasma after 24 h, read-out: % Reduction LDL-C (LDL cholesterol).
[4] abbreviates: 150 μmol/kg i.p., plasma after 24 h, read-out: % Reduction TC (total cholesterol).
The mark [5] stands for this setting: 150 μmol/kg i.p., plasma after 24 h, read-out: % Reduction TG (triglycerides).
Setting [6] is: compound 31.25 μM, DMSO/water 7/3, overnight, cadmium.
Where [7] appears, read: compound 62.5 μM, DMSO/water 7/3, overnight, cadmium.
Setting [8] is: compound 125 μM, DMSO/water 7/3, overnight, cadmium.
[9] abbreviates: compound 250 μM, DMSO/water 7/3, overnight, cadmium.
The mark [10] stands for this setting: compound 500 μM, DMSO/water 7/3, overnight, cadmium.
[11] abbreviates: read-out: % Reduction LDL-C (LDL cholesterol).
[12] abbreviates: read-out: % Reduction TC (total cholesterol).
[13] abbreviates: read-out: % Reduction TG (triglycerides).

Like-named read-outs stand apart in the source and are kept apart here. Marks after values point to notes of the source that are not given here. Where only a bound is given, the exact number is not on record here.

Consider ten compounds from article PMC6982741, “Design, Synthesis and Study of Nitrogen Monoxide Donors as Potent Hypolipidaemic and Anti-Inflammatory Agents” (Molecules, 2019).

Regarding `CCC(C)(C)C(=O)O[C@H]1C[C@@H](C)C=C2C=C[C@H](C)[C@H](CC[C@@H]3C[C@@H](O)CC(=O)O3)[C@H]21` [Simvastatin, reference compound], the “% Reduction TG (triglycerides)” value with hyperlipidaemic rats (150 μmol/kg i.p., plasma after 24 h) is “no effect”. Also, the inhibition in vivo at 150 µmol/kg in the assay with hyperlipidaemic rats (setting [3]) came out at 70%.
As for `COc1ccc2c(c1)c(CC(=O)O)c(C)n2C(=O)c1ccc(Cl)cc1` [Indomethacin, reference compound], the inhibition in vivo at 150 µmol/kg in assay [1] was 42%.
As to “S-nitroso-N-acetylpenicillamine [SNAP, reference compound]”, the NO Release is listed as 56.7 μΜ in assay [2] (100 μM compound, in water) and 56.3 μΜ in assay [2] (per 100 μM compound, DMSO/water 7/3).
Regarding `COc1ccc2cc(C(C)C(=O)OCCO[N+](=O)[O-])ccc2c1` (single isomer, unassigned; (+)) [Compound 4, (+)-2-(Nitrooxy)ethyl 2-(6-methoxynaphthalen-2-yl)propanoate], the inhibition in vivo at 150 µmol/kg was determined as 84.6% with hyperlipidaemic rats (setting [3]), 80% in the assay with hyperlipidaemic rats (setting [4]), 38.9% with hyperlipidaemic rats (setting [5]) and 70% in assay [1]. Besides, the “% Oedema Reduction” value in assay [1] is listed as 70 ** %. This compound returned a half-inhibitory concentration (IC50) at soybean lipoxygenase 1-B greater than 300 µM. Besides, the “NO Release” value in assay [2] (setting [6]) amounted to 2.5 μΜ; in assay [2] (setting [7]), 7 μΜ; in assay [2] (setting [8]), 17 μΜ; in assay [2] (setting [9]), 37 μΜ; in assay [2] (setting [10]), 73 μΜ.
As to `COc1ccc2cc([C@H](C)C(=O)O)ccc2c1` [Naproxen, reference compound], the results for the inhibition in vivo at 500 µmol/kg in the assay with hyperlipidaemic rats (setting [11]), with hyperlipidaemic rats (setting [12]) and in the assay on hyperlipidaemic rats (setting [13]) were 25.5%, 53% and 43.5%, respectively. In addition, the inhibition in vivo at 150 µmol/kg in assay [1] was determined as 11%.
For `O=C(/C=C/c1ccccc1)OCCO[N+](=O)[O-]` [Compound 6, (E)-2-(Nitrooxy)ethyl cinnamate], the inhibition in vivo at 150 µmol/kg in the assay with hyperlipidaemic rats (setting [3]) was 74.8%; in the assay on hyperlipidaemic rats (setting [4]) it was 70.9%; in the assay with hyperlipidaemic rats (setting [5]), 54.4%; in assay [1] it was 61%. For the same compound, on soybean lipoxygenase 1-B, half-maximal inhibition (IC50) required 220 µM. Further, the “NO Release” value worked out at 5 μΜ in assay [2] (setting [6]); 11 μΜ in assay [2] (setting [7]); 22 μΜ in assay [2] (setting [8]); 51 μΜ in assay [2] (setting [9]); 98 μΜ in assay [2] (setting [10]).
For the compound `CC(C)Cc1ccc(C(C)C(=O)OCCc2ccc([N+](=O)[O-])cc2)cc1` (racemic) [Compound 2, (±)-4-Nitrophenethyl 2-(4-isobutylphenyl)propanoate], in assay [1], the inhibition in vivo at 150 µmol/kg stood at 53%. Moreover, inhibition against soybean lipoxygenase 1-B was half-maximal at 24 µM (IC50).
`CC(C)Cc1ccc(C(C)C(=O)O)cc1` (centres unmarked) [Ibuprofen, reference compound]: the inhibition in vivo at 300 µmol/kg in the assay on hyperlipidaemic rats (setting [11]) came to 41.6%; in the assay with hyperlipidaemic rats (setting [12]), 41%; in the assay with hyperlipidaemic rats (setting [13]), 38%. The inhibition in vivo at 150 µmol/kg in assay [1] turned out to be 36%.
In the case of `CC(C(=O)OCCO[N+](=O)[O-])c1cccc(C(=O)c2ccccc2)c1` (racemic) [Compound 5, (±)-2-(Nitrooxy)ethyl 2-(3-benzoylphenyl)propanoate], the inhibition in vivo at 150 µmol/kg came out at 57.8% in the assay on hyperlipidaemic rats (setting [3]), 46.6% with hyperlipidaemic rats (setting [4]), 40.2% with hyperlipidaemic rats (setting [5]) and 75% in assay [1]. In addition, half-maximal inhibition at soybean lipoxygenase 1-B (IC50) required 86 µM. The “NO Release” value amounted to 4 μΜ in assay [2] (setting [6]); 11 μΜ in assay [2] (setting [7]); 26 μΜ in assay [2] (setting [8]); 57 μΜ in assay [2] (setting [9]); 100 μΜ in assay [2] (setting [10]).
Regarding `CC(C)Cc1ccc(C(C)C(=O)OCCO[N+](=O)[O-])cc1` (racemic) [Compound 1, (±)-2-(Nitrooxy)ethyl 2-(4-isobutylphenyl)propanoate], the inhibition in vivo at 150 µmol/kg worked out at 80% with hyperlipidaemic rats (setting [3]), 62.2% in the assay with hyperlipidaemic rats (setting [4]), 30.1% in the assay with hyperlipidaemic rats (setting [5]) and 76% in assay [1]. Also, it took 46 µM to reach half-maximal inhibition against soybean lipoxygenase 1-B (IC50). The “NO Release” value stood at 7 μΜ in assay [2] (setting [6]); 17 μΜ in assay [2] (setting [7]); 40 μΜ in assay [2] (setting [8]); 82 μΜ in assay [2] (setting [9]); 116 μΜ in assay [2] (setting [10]).
